Data as given in patent publication US20130274284A1 (DR. REDDY'S LABORATORIES, INC., priority 2010, published 2013).

Test: storage stability with respect to degradation impurities (OXTP impurity)
Format: physicochemical
Details: for stability with respect to impurities such as OXTP impurity: stored in presence of desiccant

With `CC(=O)Oc1cc2c(s1)CCN(C(C(=O)C1CC1)c1ccccc1F)C2.Cl` (racemic) [prasugrel hydrochloride, 5-[(1RS)-2-cyclopropyl-1-(2-fluorophenyl)-2-oxoethyl]-4,5,6,7-tetrahydrothieno[3,2-c]pyridin-2-yl acetate hydrochloride] the “stability with respect to impurities such as OXTP impurity” value was “greater stability”.

For `CC(=O)Oc1cc2c(s1)CCN(C(C(=O)C1CC1)c1ccccc1F)C2` (stereo not drawn) [prasugrel, 5-(2-cyclopropyl-1-(2-fluorophenyl)-2-oxoethyl)-4,5,6,7-tetrahydrothieno[3,2-c]pyridin-2-yl acetate], the “degradation during storage leading to impurities such as OXTP impurity” value (during the storage) was “degrades during the storage” and the “stability with respect to impurities such as OXTP impurity” value was “greater stability”.
